ChEMBL document CHEMBL5550146, “Design, synthesis, and biological evaluation of novel sesquiterpene lactone derivatives as PKM2 activators with potent anti-ulcerative colitis activities” (Eur J Med Chem, 2024)
Calls of active or inactive are those of the source. No cut-off for these calls is given here.

Columns and labels:
T-cell [1] = assay: Antiproliferative activity against concanavalin A-stimulated C57BL/6 mouse T cells measured after 48 hrs by CCK8 assay; type: functional, cell-based; conditions: C57BL/6, T-cell
Pyruvate kinase PKM [2] = target: T1, Pyruvate kinase PKM (Homo sapiens, UniProt P14618); assay: Activation of recombinant human PKM2 incubated for 40 mins by pyruvate kinase assay
Target sequence in this assay (P14618 whole entry): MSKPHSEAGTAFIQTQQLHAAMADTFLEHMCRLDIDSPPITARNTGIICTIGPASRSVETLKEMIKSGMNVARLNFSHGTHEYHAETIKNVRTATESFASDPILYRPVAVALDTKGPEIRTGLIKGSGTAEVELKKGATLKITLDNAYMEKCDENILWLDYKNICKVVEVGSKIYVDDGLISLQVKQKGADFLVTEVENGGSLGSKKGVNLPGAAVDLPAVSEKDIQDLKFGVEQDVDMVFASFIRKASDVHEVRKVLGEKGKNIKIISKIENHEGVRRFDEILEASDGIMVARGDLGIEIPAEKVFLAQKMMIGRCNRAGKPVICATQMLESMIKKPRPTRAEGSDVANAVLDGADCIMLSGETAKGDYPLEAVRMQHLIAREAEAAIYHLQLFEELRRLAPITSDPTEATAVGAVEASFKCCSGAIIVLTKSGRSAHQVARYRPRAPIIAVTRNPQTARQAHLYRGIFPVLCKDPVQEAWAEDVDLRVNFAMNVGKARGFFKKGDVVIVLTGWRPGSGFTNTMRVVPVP

T-cell [3] = assay: Potency index, ratio of Parthenolide IC50 to test compound IC50 for antiproliferative activity against concanavalin A-stimulated C57BL/6 mouse T cells measured after 48 hrs by CCK8 assay; type: functional
[4] = target: Pyruvate kinase PKM (Mus musculus) (UniProt P52480); assay: Induction of thermal stabilization of PKM2 in C57BL/6 mouse CD4+ T cells at 1 uM incubated for 4 hrs at 58 to 64 degreeC by CETSA; type: cell-based; conditions: CD4+ T cell
Chain of Pyruvate kinase PKM (Mus musculus) (P52480 whole entry): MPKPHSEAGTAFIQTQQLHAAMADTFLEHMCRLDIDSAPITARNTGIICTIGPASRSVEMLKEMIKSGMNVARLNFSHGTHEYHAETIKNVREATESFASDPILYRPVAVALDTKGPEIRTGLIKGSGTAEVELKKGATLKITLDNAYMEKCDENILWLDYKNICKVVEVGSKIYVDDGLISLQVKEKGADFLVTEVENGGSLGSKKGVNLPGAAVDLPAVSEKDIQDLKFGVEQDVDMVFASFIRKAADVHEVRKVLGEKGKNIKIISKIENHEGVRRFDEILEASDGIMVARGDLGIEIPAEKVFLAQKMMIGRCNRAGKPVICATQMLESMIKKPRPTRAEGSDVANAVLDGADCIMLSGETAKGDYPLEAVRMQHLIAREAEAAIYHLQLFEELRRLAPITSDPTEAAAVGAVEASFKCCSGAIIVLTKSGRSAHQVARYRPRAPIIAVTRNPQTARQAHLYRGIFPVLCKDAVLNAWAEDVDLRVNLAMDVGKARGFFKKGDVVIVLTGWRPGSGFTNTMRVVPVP

Pyruvate kinase PKM [5] = target: T1, Pyruvate kinase PKM; assay: Binding affinity to PKM2 (unknown origin) assessed as association rate constant (Ka) at 3.125 to 50 uM by SPR analysis; conditions: filed as activator, dose 3.125-50 µM
Target sequence in this assay (P14618 2-531 limits assumed): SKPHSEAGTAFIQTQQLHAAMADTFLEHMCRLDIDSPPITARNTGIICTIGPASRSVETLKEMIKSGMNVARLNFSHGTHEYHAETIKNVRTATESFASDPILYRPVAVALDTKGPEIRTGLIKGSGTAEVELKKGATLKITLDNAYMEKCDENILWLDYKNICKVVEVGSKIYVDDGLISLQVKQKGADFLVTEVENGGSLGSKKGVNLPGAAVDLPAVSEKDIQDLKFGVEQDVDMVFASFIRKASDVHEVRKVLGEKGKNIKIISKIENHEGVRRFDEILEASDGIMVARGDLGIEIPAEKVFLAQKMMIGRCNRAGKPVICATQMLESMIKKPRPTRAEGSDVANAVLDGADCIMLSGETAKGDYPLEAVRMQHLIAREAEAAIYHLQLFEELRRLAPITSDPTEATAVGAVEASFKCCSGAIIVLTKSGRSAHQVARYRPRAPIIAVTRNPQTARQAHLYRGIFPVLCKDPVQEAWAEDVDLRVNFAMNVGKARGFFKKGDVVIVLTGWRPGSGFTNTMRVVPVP

Pyruvate kinase PKM [6] = target: T1, Pyruvate kinase PKM; assay: Binding affinity to PKM2 (unknown origin) assessed as dissociation rate constant (Kd) at 3.125 to 50 uM by SPR analysis
Target sequence in this assay (P14618 whole entry): as the sequence (P14618 whole entry) above

Pyruvate kinase PKM [7] = target: T1, Pyruvate kinase PKM; assay: Binding affinity to PKM2 (unknown origin) assessed as dissociation constant by SPR analysis
Target sequence in this assay (P14618 whole entry): as above

Pyruvate kinase PKM [8] = target: T1, Pyruvate kinase PKM; assay: Covalent binding affinity to Cys423 residue of recombinant human PKM2 at 50 uM incubated for 60 mins by LC-MS/MS analysis; conditions: filed as activator
Target sequence in this assay (P14618 2-531 limits assumed): as the sequence (P14618 2-531 limits assumed) above

Th17 [9] = assay: Downregulation of total PKM2 expression in C57BL/6 mouse Th17 cells differentiated from CD4+ T cells at 0.1 to 1 uM incubated for 48 hrs by Western blot analysis; type: functional, cell-based; conditions: dose 0.1-1 µM
[10] = target: Pyruvate kinase PKM (Mus musculus) (UniProt P52480); assay: Inhibition of PKM2 dimer nuclear translocation in C57BL/6 mouse Th17 cells differentiated from CD4+ T cells assessed as decrease in PKM2 expression in nucleus at 0.1 to 1 uM incubated for 48 hrs by Western blot analysis; type: cell-based; conditions: dose 0.1-1 µM
Th17 [11] = assay: Effect on PKM2 expression in cytoplasm of C57BL/6 mouse Th17 cells differentiated from CD4+ T cells at 0.1 to 1 uM incubated for 48 hrs by Western blot analysis; type: functional, cell-based; conditions: dose 0.1-1 µM
[12] = target: Pyruvate kinase PKM (Mus musculus) (UniProt P52480); assay: Activation of PKM2 in C57BL/6 mouse Th17 cells differentiated from CD4+ T cells assessed as induction of PKM2 tetramer formation at 0.1 to 1 uM incubated for 48 hrs by immunoblotting based protein cross linking assay; type: cell-based; conditions: filed as activator, dose 0.1-1 µM
Th17 [13] = assay: Inhibition of C57BL/6 mouse Th17 cell differentiation from CD4+ T cells assessed as reduction in RORC mRNA expression at 0.1 uM incubated for 96 hrs by qPCR analysis; type: functional, cell-based
Th17 [14] = assay: Inhibition of C57BL/6 mouse Th17 cell differentiation from CD4+ T cells assessed as reduction in IL-17a mRNA expression at 0.1 uM incubated for 96 hrs by qPCR analysis; type: functional, cell-based
Th17 [15] = assay: Inhibition of C57BL/6 mouse Th17 cell differentiation from CD4+ T cells assessed as reduction in […] mRNA expression at 0.1 uM incubated for 96 hrs by qPCR analysis; type: functional, cell-based
Th17 [16] = assay: Inhibition of C57BL/6 mouse Th17 cell differentiation from CD4+ T cells assessed as reduction in IL-21 mRNA expression at 0.1 uM incubated for 96 hrs by qPCR analysis; type: functional, cell-based
[17] = Inhibition of C57BL/6 mouse Th17 cells differentiation from CD4+ T cells assessed as frequency of CD4+ IL-17A+ Th17 cells at 0.1 uM incubated for 96 hrs by flow cytometric analysis (reference value: 23.52 %); type: functional; design: scale not given: the % may be the effect or the level left
[18] = Inhibition of C57BL/6 mouse Th17 cells differentiation from CD4+ T cells assessed as frequency of CD4+ IL-17A+ Th17 cells at 0.3 uM incubated for 96 hrs by flow cytometric analysis (reference value: 23.52 %); type: functional; design: scale not given: the % may be the effect or the level left
[19] = Inhibition of C57BL/6 mouse Th17 cells differentiation from CD4+ T cells assessed as frequency of CD4+ IL-17A+ Th17 cells at 1 uM incubated for 96 hrs by flow cytometric analysis (reference value: 23.52 %); type: functional; design: scale not given: the % may be the effect or the level left
[20] = Inhibition of C57BL/6 mouse Regulatory T cells differentiation from CD4+ T cells assessed as frequency of CD4+ Foxp3+ Treg cells at 0.1 uM incubated for 96 hrs by flow cytometric analysis ( Rvb = 24.48 %); type: functional, Regulatory T cell; design: scale not given: the % may be the effect or the level left
[21] = Inhibition of C57BL/6 mouse Regulatory T cells differentiation from CD4+ T cells assessed as frequency of CD4+ Foxp3+ Treg cells at 0.3 uM incubated for 96 hrs by flow cytometric analysis ( Rvb = 24.48 %); type: functional, Regulatory T cell; design: scale not given: the % may be the effect or the level left
[22] = Inhibition of C57BL/6 mouse Regulatory T cells differentiation from CD4+ T cells assessed as frequency of CD4+ Foxp3+ Treg cells at 1 uM incubated for 96 hrs by flow cytometric analysis ( Rvb = 24.48 %); type: functional, Regulatory T cell; design: scale not given: the % may be the effect or the level left
Regulatory T cell [23] = assay: Inhibition of C57BL/6 mouse Regulatory T cells differentiation from CD4+ T cells assessed as change in Foxp3 mRNA expression at 0.1 to 1 uM incubated for 96 hrs by qPCR analysis; type: functional, cell-based; conditions: dose 0.1-1 µM
Regulatory T cell [24] = assay: Inhibition of C57BL/6 mouse Regulatory T cells differentiation from CD4+ T cells assessed as change in IL-10 mRNA expression at 0.1 to 1 uM incubated for 96 hrs by qPCR analysis; type: functional, cell-based; conditions: dose 0.1-1 µM
Th17 [25] = assay: Inhibition of C57BL/6 mouse Th17 cell differentiation from CD4+ T cells assessed as decrease in glucose consumption incubated for 48 hrs by colorimetric analysis; type: functional, cell-based; conditions: dose 1.0 µM
Th17 [26] = assay: Inhibition of C57BL/6 mouse Th17 cell differentiation from CD4+ T cells assessed as reduction in lactate production at […] to 1 uM incubated for 48 hrs by colorimetric analysis; type: functional, cell-based
Th17 [27] = assay: Inhibition of C57BL/6 mouse Th17 cell differentiation from CD4+ T cells assessed as reduction in Glut1 protein level; type: functional, cell-based
Th17 [28] = assay: Inhibition of C57BL/6 mouse Th17 cell differentiation from CD4+ T cells assessed as reduction in HK2 protein level; type: functional, cell-based
Th17 [29] = assay: Inhibition of C57BL/6 mouse Th17 cell differentiation from CD4+ T cells assessed as reduction in PFK1 protein level; type: functional, cell-based
Th17 [30] = assay: Inhibition of C57BL/6 mouse Th17 cell differentiation from CD4+ T cells assessed as reduction in Glut1 mRNA level; type: functional, cell-based
Th17 [31] = assay: Inhibition of C57BL/6 mouse Th17 cell differentiation from CD4+ T cells assessed as reduction in HK2 mRNA level; type: functional, cell-based
Th17 [32] = assay: Inhibition of C57BL/6 mouse Th17 cell differentiation from CD4+ T cells assessed as reduction in PFK1 mRNA level; type: functional, cell-based
Mus musculus [33] = assay: Antiinflammatory activity in DSS-induced colitis female C57BL/6 mouse model assessed as reduction in body weight loss at 5 to 10 mg/kg, ip administered for 12 days with subsequent treatment of DSS for 9 days followed by drinking water for 3 days; type: functional, organism-based; conditions: dose 5-10 mg/kg, time 12.0 day
Mus musculus [34] = assay: Antiinflammatory activity in DSS-induced colitis female C57BL/6 mouse model assessed as reduction in disease activity index score at 5 to 10 mg/kg, ip administered for 12 days with subsequent treatment of DSS for 9 days followed by drinking water for 3 days; type: functional, organism-based; conditions: dose 5-10 mg/kg, time 12.0 day
Mus musculus [35] = assay: Antiinflammatory activity in DSS-induced colitis female C57BL/6 mouse model assessed as reduction in shortening of colon length at 5 mg/kg, ip administered for 12 days with subsequent treatment of DSS for 9 days followed by drinking water for 3 days; type: functional, organism-based; conditions: time 12.0 day
Mus musculus [36] = assay: Antiinflammatory activity in DSS-induced colitis female C57BL/6 mouse model assessed as improvement in crypt deformation at 5 to 10 mg/kg, ip administered for 12 days with subsequent treatment of DSS for 9 days followed by drinking water for 3 days by H and E staining based analysis; type: functional, organism-based; conditions: dose 5-10 mg/kg, time 12.0 day
Mus musculus [37] = assay: Antiinflammatory activity in DSS-induced colitis female C57BL/6 mouse model assessed as improvement in inflammatory cell infiltration at 5 to 10 mg/kg, ip administered for 12 days with subsequent treatment of DSS for 9 days followed by drinking water for 3 days by H and E staining based analysis; type: functional, organism-based; conditions: dose 5-10 mg/kg, time 12.0 day
Mus musculus [38] = assay: Antiinflammatory activity in DSS-induced colitis female C57BL/6 mouse model assessed as improvement in goblet cell loss at 5 to 10 mg/kg, ip administered for 12 days with subsequent treatment of DSS for 9 days followed by drinking water for 3 days by H and E staining based analysis; type: functional, organism-based; conditions: dose 5-10 mg/kg, time 12.0 day

AC50 (Pyruvate kinase PKM [2]): 144 nM
Activity [4]: Active
Ka (Pyruvate kinase PKM [5]): 1.12 10^4/Ms
Kd (Pyruvate kinase PKM [6]): 0.028 s⁻¹
Kd (Pyruvate kinase PKM [7]): 2480 nM
Activity (Pyruvate kinase PKM [8]): Active
inhibition [10]: Active
Activity [12]: Active
Compound: C=C1C(=O)O[C@H]2[C@H]1CC/C(COC(F)(F)F)=C\CC[C@@]1(C)O[C@@H]21
IC50 (T-cell [1]): 430 nM
Ratio IC50 (T-cell [3]): 5
Activity (Th17 [9]): Active
Activity (Th17 [11]): inactive
inhibition (Th17 [13]): Active
inhibition (Th17 [14]): Active
inhibition (Th17 [15]): Active
inhibition (Th17 [16]): Active
Activity [17]: 17.11%
Activity [18]: 14.67%
Activity [19]: 9.84%
Activity [20]: 23.97%
Activity [21]: 24.84%
Activity [22]: 25.4%
inhibition (Regulatory T cell [23]): inactive
inhibition (Regulatory T cell [24]): inactive
inhibition (Th17 [25]): Dose-Dependent Effect
inhibition (Th17 [26]): Active
inhibition (Th17 [27]): Active
inhibition (Th17 [28]): Active
inhibition (Th17 [29]): Active
inhibition (Th17 [30]): Active
inhibition (Th17 [31]): Active
inhibition (Th17 [32]): Active
Activity (Mus musculus [33]): Active
Activity (Mus musculus [34]): Active
Activity (Mus musculus [35]): Active
Activity (Mus musculus [36]): Active
Activity (Mus musculus [37]): Active
Activity (Mus musculus [38]): Active
